Values after ≈ are worked out from the molar mass of the structure shown.
Assays:
Bacillus subtilis [1] = assay: Antibacterial activity against gram-positive Bacillus subtilis MTCC 121 after 24 hrs by agar well diffusion method; format: functional; conditions: MTCC 121, 24 h
Escherichia coli [2] = assay: Antibacterial activity against gram-negative Escherichia coli MTCC 739 after 24 hrs by agar well diffusion method; format: functional; conditions: MTCC 739, 24 h
Candida albicans [3] = assay: Antifungal activity against Candida albicans MTCC 3017 after 24 hrs by agar well diffusion method; format: functional; conditions: MTCC 3017, 24 h
Bacillus subtilis [4] = assay: Bactericidal activity against gram-positive Bacillus subtilis MTCC 121 incubated for 24 hrs followed by microbial sample growth at Mueller Hinton agar plates; format: functional; conditions: MTCC 121, 24 h
Escherichia coli [5] = assay: Bactericidal activity against gram-negative Escherichia coli MTCC 739 incubated for 24 hrs followed by microbial sample growth at Mueller Hinton agar plates; format: functional; conditions: MTCC 739, 24 h
Candida albicans [6] = assay: Fungicidal activity against Candida albicans MTCC 3017 incubated for 24 hrs followed by microbial sample growth Sabouraud dextrose agar plates; format: functional; conditions: MTCC 3017, 24 h
Staphylococcus aureus [7] = assay: Antibacterial activity against gram-positive Staphylococcus aureus MTCC 96 after 24 hrs by agar well diffusion method; format: functional; conditions: MTCC 96, 24 h
Staphylococcus aureus [8] = assay: Antibacterial activity against gram-positive Staphylococcus aureus MLS-16 MTCC 2940 after 24 hrs by agar well diffusion method; format: functional; conditions: MLS-16 MTCC 2940, 24 h
Micrococcus luteus [9] = assay: Antibacterial activity against gram-positive Micrococcus luteus MTCC 2470 after 24 hrs by agar well diffusion method; format: functional; conditions: MTCC 2470, 24 h
Staphylococcus aureus [10] = assay: Bactericidal activity against gram-positive Staphylococcus aureus MTCC 96 incubated for 24 hrs followed by microbial sample growth at Mueller Hinton agar plates; format: functional; conditions: MTCC 96, 24 h
Staphylococcus aureus [11] = assay: Bactericidal activity against gram-positive Staphylococcus aureus MLS-16 MTCC 2940 incubated for 24 hrs followed by microbial sample growth at Mueller Hinton agar plates; format: functional; conditions: MLS-16 MTCC 2940, 24 h
Micrococcus luteus [12] = assay: Bactericidal activity against gram-positive Micrococcus luteus MTCC 2470 incubated for 24 hrs followed by microbial sample growth at Mueller Hinton agar plates; format: functional; conditions: MTCC 2470, 24 h
[13] = target: T1, 4,4'-diapophytoene synthase (Staphylococcus aureus, UniProt A9JQL9); assay: Inhibition of Staphylococcus aureus dehydrosqualene synthase
T1 sequence (A9JQL9 whole entry): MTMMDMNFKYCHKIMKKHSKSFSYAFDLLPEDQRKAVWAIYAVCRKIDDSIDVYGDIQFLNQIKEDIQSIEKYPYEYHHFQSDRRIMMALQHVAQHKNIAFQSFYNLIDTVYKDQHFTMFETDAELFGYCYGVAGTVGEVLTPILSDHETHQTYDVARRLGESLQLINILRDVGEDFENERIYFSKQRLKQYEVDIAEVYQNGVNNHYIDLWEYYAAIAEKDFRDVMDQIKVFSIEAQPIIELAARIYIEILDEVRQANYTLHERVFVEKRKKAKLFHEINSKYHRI

Raoultella planticola [14] = assay: Antibacterial activity against gram-negative Klebsiella planticola MTCC 530 after 24 hrs by agar well diffusion method; format: functional; conditions: MTCC 530, 24 h
Raoultella planticola [15] = assay: Bactericidal activity against gram-negative Klebsiella planticola MTCC 530 incubated for 24 hrs followed by microbial sample growth at Mueller Hinton agar plates; format: functional; conditions: MTCC 530, 24 h
Pseudomonas aeruginosa = assay: microbe, parasite or virus in culture; conditions: MTCC 2453, 24 h
Description: Bactericidal activity against gram-negative Pseudomonas aeruginosa MTCC 2453 incubated for 24 hrs followed by microbial sample growth at Mueller Hinton agar plates

SMILES | MIC (Bacillus subtilis [1]) | MIC (Escherichia coli [2]) | MIC (Candida albicans [3]) | MBC (Bacillus subtilis [4]) | MBC (Escherichia coli [5]) | MFC (Candida albicans [6]) | MIC (Staphylococcus aureus [7]) | MIC (Staphylococcus aureus [8]) | MIC (Micrococcus luteus [9]) | MBC (Staphylococcus aureus [10]) | MBC (Staphylococcus aureus [11]) | MBC (Micrococcus luteus [12]) | Ki [13] | MIC (Raoultella planticola [14]) | MBC (Raoultella planticola [15]) | MBC (Pseudomonas aeruginosa)
CCOC(=O)c1c(N2CCN(c3ccccc3C(F)(F)F)CC2)c2ccccc2n(CC)c1=O | 7.8 µg/mL (≈ 16.5 µM) | 7.8 µg/mL (≈ 16.5 µM) | 7.8 µg/mL (≈ 16.5 µM) | 15.6 µg/mL (≈ 32.9 µM) | 15.6 µg/mL (≈ 32.9 µM) | 15.6 µg/mL (≈ 32.9 µM) |  |  |  |  |  |  |  |  |  | 
CCOC(=O)c1c(N2CCN(c3ccccc3F)CC2)c2ccccc2n(C)c1=O | 3.9 µg/mL (≈ 9.52 µM) | 3.9 µg/mL (≈ 9.52 µM) | 3.9 µg/mL (≈ 9.52 µM) | 7.8 µg/mL (≈ 19 µM) | 7.8 µg/mL (≈ 19 µM) | 7.8 µg/mL (≈ 19 µM) | 3.9 µg/mL (≈ 9.52 µM) | 7.8 µg/mL (≈ 19 µM) | 3.9 µg/mL (≈ 9.52 µM) | 7.8 µg/mL (≈ 19 µM) | 15.6 µg/mL (≈ 38.1 µM) | 7.8 µg/mL (≈ 19 µM) | 7.87 µM |  |  | 
CCOC(=O)c1c(N2CCN(c3ccccc3F)CC2)c2ccccc2n(CC)c1=O |  |  |  |  |  |  | 3.9 µg/mL (≈ 9.21 µM) |  |  | 7.8 µg/mL (≈ 18.4 µM) |  |  | 8.33 µM | 7.8 µg/mL (≈ 18.4 µM) | 7.8 µg/mL (≈ 18.4 µM) | 
CCOC(=O)c1c(N2CCN(C(=O)OC(C)(C)C)CC2)c2ccccc2n(C)c1=O |  |  |  |  |  |  | 3.9 µg/mL (≈ 9.39 µM) |  |  | 7.8 µg/mL (≈ 18.8 µM) |  |  | 5.19 µM |  |  | 
CCOC(=O)c1c(N2CCN(c3cccc(OC)c3)CC2)c2ccccc2n(CC)c1=O |  |  |  |  |  |  | 3.9 µg/mL (≈ 8.95 µM) |  | 7.8 µg/mL (≈ 17.9 µM) | 7.8 µg/mL (≈ 17.9 µM) |  | 15.6 µg/mL (≈ 35.8 µM) | 15.7 µM |  |  | 
CCOC(=O)c1c(N2CCN(c3ccc(F)cc3)CC2)c2ccccc2n(C)c1=O |  |  | 7.8 µg/mL (≈ 19 µM) |  |  | 15.6 µg/mL (≈ 38.1 µM) | 3.9 µg/mL (≈ 9.52 µM) |  |  | 7.8 µg/mL (≈ 19 µM) |  |  | 1.26 µM |  |  | 
CCOC(=O)c1c(N2CCN(c3ccccc3OC)CC2)c2ccccc2n(CC)c1=O |  |  |  |  |  |  | 3.9 µg/mL (≈ 8.95 µM) |  |  | 7.8 µg/mL (≈ 17.9 µM) |  |  | 14 µM |  |  | 
CCOC(=O)c1c(N2CCCC2)c2ccccc2n(CC)c1=O |  |  |  |  |  |  |  |  | 7.8 µg/mL (≈ 24.8 µM) |  |  | 15.6 µg/mL (≈ 49.6 µM) |  |  |  | 
CCOC(=O)c1c(N2CCN(c3ccccc3C(F)(F)F)CC2)c2ccccc2n(C)c1=O |  |  | 7.8 µg/mL (≈ 17 µM) |  |  | 15.6 µg/mL (≈ 34 µM) |  |  |  |  |  |  |  |  |  | 
CCOC(=O)c1c(N2CCN(C(=O)OC(C)(C)C)CC2)c2ccccc2n(CC)c1=O |  |  |  |  |  |  | 3.9 µg/mL (≈ 9.08 µM) |  |  | 7.8 µg/mL (≈ 18.2 µM) |  |  | 20.2 µM |  |  | 
CCOC(=O)c1c(N2CCN(c3ccc(F)cc3)CC2)c2ccccc2n(CC)c1=O | 3.9 µg/mL (≈ 9.21 µM) | 3.9 µg/mL (≈ 9.21 µM) | 3.9 µg/mL (≈ 9.21 µM) | 7.8 µg/mL (≈ 18.4 µM) | 7.8 µg/mL (≈ 18.4 µM) | 7.8 µg/mL (≈ 18.4 µM) | 3.9 µg/mL (≈ 9.21 µM) | 3.9 µg/mL (≈ 9.21 µM) | 3.9 µg/mL (≈ 9.21 µM) | 7.8 µg/mL (≈ 18.4 µM) | 7.8 µg/mL (≈ 18.4 µM) | 7.8 µg/mL (≈ 18.4 µM) | 6.89 µM | 3.9 µg/mL (≈ 9.21 µM) | 7.8 µg/mL (≈ 18.4 µM) | 
CCOC(=O)c1c(N2CCN(c3ccccc3OC)CC2)c2ccccc2n(C)c1=O |  |  |  |  |  |  | 3.9 µg/mL (≈ 9.25 µM) |  |  | 7.8 µg/mL (≈ 18.5 µM) |  |  | 19.8 µM |  |  | 
O=C(O)c1cn(C2CC2)c2cc(N3CCNCC3)c(F)cc2c1=O [CIPROFLOXACIN] | 0.9 µg/mL (≈ 2.72 µM) | 0.9 µg/mL (≈ 2.72 µM) |  | 0.9 µg/mL (≈ 2.72 µM) | 0.9 µg/mL (≈ 2.72 µM) |  | 0.9 µg/mL (≈ 2.72 µM) | 0.9 µg/mL (≈ 2.72 µM) | 0.9 µg/mL (≈ 2.72 µM) | 0.9 µg/mL (≈ 2.72 µM) | 0.9 µg/mL (≈ 2.72 µM) | 0.9 µg/mL (≈ 2.72 µM) |  | 0.9 µg/mL (≈ 2.72 µM) | 0.9 µg/mL (≈ 2.72 µM) | 0.9 µg/mL (≈ 2.72 µM)
Clc1ccc(COC(Cn2ccnc2)c2ccc(Cl)cc2Cl)c(Cl)c1 (stereo not given) [MICONAZOLE] |  |  | 7.8 µg/mL (≈ 18.7 µM) |  |  | 7.8 µg/mL (≈ 18.7 µM) |  |  |  |  |  |  |  |  |  | 

From ChEMBL document CHEMBL4219137, “A novel templates of piperazinyl-1,2-dihydroquinoline-3-carboxylates: Synthesis, anti-microbial evaluation and molecular docking studies” (Bioorg Med Chem Lett, 2018)
